Common to all, as to test: α-Gal A activity in lysates of transfected HEK-293 cells ± migalastat (HEK assay)
In experiment [1] the target is T1, α-Gal A mutant form D165N (Homo sapiens, UniProt P06280, D165N).
T1 construct: expressed in transfected cells; host or cells: HEK-293
T1 sequence (P06280 32-429 D165N): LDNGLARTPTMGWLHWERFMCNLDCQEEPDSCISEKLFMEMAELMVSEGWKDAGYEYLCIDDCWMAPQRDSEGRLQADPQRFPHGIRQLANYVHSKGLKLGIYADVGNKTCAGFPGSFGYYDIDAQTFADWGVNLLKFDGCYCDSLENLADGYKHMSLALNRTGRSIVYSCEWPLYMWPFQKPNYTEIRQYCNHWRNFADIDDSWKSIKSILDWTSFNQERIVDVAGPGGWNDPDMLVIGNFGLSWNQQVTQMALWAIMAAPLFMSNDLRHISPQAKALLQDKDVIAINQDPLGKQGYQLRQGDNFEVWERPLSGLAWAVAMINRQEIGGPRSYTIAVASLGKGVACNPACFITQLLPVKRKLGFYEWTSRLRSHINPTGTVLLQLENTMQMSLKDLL
In kind it is cell-based. An excerpt:
(§1) Such mutations or variants are also referred to herein as “HEK assay amenable” mutations or variants.
(§2) The α-Gal A activity is expressed as the nmoles of free 4-MU released per milligram of protein per hour (nmol/mg/hr).

In experiment [2] the target is T2, α-Gal A mutant form A143V (Homo sapiens, UniProt P06280, A143V).
T2 construct: expressed in transfected cells; host or cells: HEK-293
T2 sequence (P06280 32-429 A143V): T1 sequence (P06280 32-429 D165N) with A112V, N134D
In kind it is cell-based.
Excerpt: as §1, §2

The target in experiment [3] is T3, α-Gal A mutant form F159C (Homo sapiens, UniProt P06280, F159C).
T3 construct: expressed in transfected cells; host or cells: HEK-293
T3 sequence (P06280 32-429 F159C): T1 sequence (P06280 32-429 D165N) with F128C, N134D
In kind it is cell-based.
Excerpt: as §1, §2

Experiment [4] concerns the target T4, α-Gal A mutant form G360A (Homo sapiens, UniProt P06280, G360A).
T4 construct: expressed in transfected cells; host or cells: HEK-293
T4 sequence (P06280 32-429 G360A): T1 sequence (P06280 32-429 D165N) with N134D, G329A
The experiment is classed as cell-based.
Excerpt: as §1, §2

For experiment [5], the target named is T5, α-Gal A mutant form V124G (Homo sapiens, UniProt P06280, V124G).
T5 construct: expressed in transfected cells; host or cells: HEK-293
T5 sequence (P06280 32-429 V124G): T1 sequence (P06280 32-429 D165N) with V93G, N134D
The experiment is classed as cell-based.
Excerpt: as §1, §2

The subject of experiment [6] is α-Gal A mutant form A29D. In kind it is cell-based, human.
Excerpt: as §1, §2

Where [7] appears, read: 10 μM migalastat minus baseline.
Where [8] appears, read: HEK-293 lysates, 10 μM migalastat 5 days, mean ± SEM.

Each structure is given as a SMILES string. Where a chain is given by its changes, count along the chain named.

Results on one compound are retold here after patent US20230136297A1, “Methods Of Treating Fabry Disease In Patients Having A Mutation In The GLA Gene” (Amicus Therapeutics, Inc., priority 2020, published 2023).

For `OC[C@H]1NC[C@H](O)[C@@H](O)[C@H]1O` [migalastat, (2R,3S,4R,5S)-2-(hydroxymethyl) piperdine-3,4,5-triol], the “Absolute increase (% WT)” value was found to be 34 % WT in experiment [1] (setting [7]); 31.7 % WT in experiment [2] (setting [7]); 15.8 % WT in experiment [3] (setting [7]); 7.5 % WT in experiment [4] (setting [7]); 6.4 % WT in experiment [5] (setting [7]); 5.1 % WT in experiment [6] (setting [7]). For the same compound, the Relative increase in experiment [1] (10 μM migalastat ÷ baseline) was determined as 6.86; in experiment [2] (10 μM migalastat ÷ baseline) it was 3.24; in experiment [3] (10 μM migalastat ÷ baseline), 2.07; in experiment [4] (10 μM migalastat ÷ baseline), 1.28; in experiment [6] (10 μM migalastat ÷ baseline) it was 1.35. Further, the “10 μM migalastat α-Gal A activity” value was 10562 ± 1017 nmol/mg/h in experiment [1] (setting [8]); 13309 ± 921 nmol/mg/h in experiment [2] (setting [8]); 9238 ± 513 nmol/mg/h in experiment [3] (setting [8]); 13443 ± 1048 nmol/mg/h in experiment [4] (setting [8]); 4316 ± 432 nmol/mg/h in experiment [5] (setting [8]); 6877 ± 474 nmol/mg/h in experiment [6] (setting [8]). The “10 μM migalastat α-Gal A activity (% WT)” value in experiment [1] (setting [8]) is reported as 40 ± 2.7 % WT; in experiment [2] (setting [8]) it was 45.5 ± 3.2 % WT; in experiment [3] (setting [8]), 29.6 ± 2.3 % WT; in experiment [4] (setting [8]) it was 31.3 ± 2.6 % WT; in experiment [5] (setting [8]), 10.7 ± 1^ % WT; in experiment [6] (setting [8]), 20.3 ± 1.1 % WT.
